Results as given in patent US7972780B2, “ITPase gene polymorphisms associated with adverse drug reactions to azathioprine therapy” (Guy's and St. Thomas' NHS Foundation Trust, priority 2004, dated 2011).
Like-named read-outs stand apart in the source and are kept apart here.

Experiments:
[1] = system: Caucasian patients with IBD; details: for Odds ratio, All side effects: ADR n = 62 vs controls n = 68; for Odds ratio, Hepatotoxicity / Odds ratio, Other: n = 4 vs controls; for Odds ratio, Neutropenia: n = 11 vs controls; for Odds ratio, Flu-like symptoms: n = 16 vs controls
patients = details: Dubinsky et al. 2001; cited from earlier work
[2] = ITPA 94C>A, TPMT heterozygous genotypes excluded

## Cn1cnc([N+](=O)[O-])c1Sc1ncnc2nc[nH]c12 [azathioprine]
[1]; ITPA 94C > A variant genotype
  Odds ratio, All side effects: 4.2
[1]; ITPA 94C > A
  Odds ratio, Hepatotoxicity: 10.3
  Odds ratio, Other: 3.4
  Odds ratio, Neutropenia: 1.0
  Odds ratio, Flu-like symptoms: 4.7
[1]; ITPA 94C > A, n = 6 vs controls
  Odds ratio, Rash: 10.3
[1]; ITPA 94C > A, n = 8 vs controls
  Odds ratio, Pancreatitis: 6.2
[1]; ITPA 94C > A, n = 13 vs controls
  Odds ratio, Nausea and vomiting: 3.1
[1]; [2]
  Odds ratio, Nausea and vomiting: 6.2
  Odds ratio, Pancreatitis: 7.8
  Odds ratio, Rash: 15.5
[1]; ITPA 94C>A, TPMT heterozygous genotypes excluded from side-effect cohort
  Odds ratio, adverse drug reactions: 5.3
[1]; ITPA IVS2 + 21A > C variant genotype
  Odds ratio, All side effects: 0.7
[1]; ITPA IVS2 + 21A > C
  Odds ratio, Hepatotoxicity: 0.5
  Odds ratio, Other: 4.2
  Odds ratio, Neutropenia: 0.4
  Odds ratio, Flu-like symptoms: 1.0
[1]; ITPA IVS2 + 21A > C, n = 6 vs controls
  Odds ratio, Rash: 0.9
[1]; ITPA IVS2 + 21A > C, n = 8 vs controls
  Odds ratio, Pancreatitis: 0.6
[1]; ITPA IVS2 + 21A > C, n = 13 vs controls
  Odds ratio, Nausea and vomiting: 0.4
[1]; TPMT *3A + C variant genotype
  Odds ratio, All side effects: 1.7
[1]; TPMT *3A + C
  Odds ratio, Hepatotoxicity: 2.9
  Odds ratio, Neutropenia: 0.9
  Odds ratio, Flu-like symptoms: 0.3
[1]; TPMT *3A + C, n = 6 vs controls
  Odds ratio, Rash: 4.4
[1]; TPMT *3A + C, n = 8 vs controls
  Odds ratio, Pancreatitis: 1.3
[1]; TPMT *3A + C, n = 13 vs controls
  Odds ratio, Nausea and vomiting: 5.5
[1]; TPMT and ITPA 94C>A genotypes combined
  Odds ratio, risk of experiencing an adverse drug reaction: 3.5
[1]; of the 4 re-challenged patients heterozygous for a variant TPMT allele
  patients remaining intolerant on re-challenge with reduced dose: two patients remained intolerant
[1]; of the 62 patients suffering adverse drug reactions
  patients in whom therapy could be continued at full dose: 5
[1]; patients with ITPA 94C>A alleles
  patients who tolerated a reduced dose: 3 of 6
IBD patients; ITPA 94C>A, 6 patients
  Odds ratio, Rash: 10.833
IBD patients; ITPA 94C>A, 11 patients
  Odds ratio, flu-like symptoms: 6.190
IBD patients; ITPA 94C>A, 64 ADR patients vs 71 without side-effects, dominant model
  Odds ratio, adverse drug reactions to AZA therapy: 4.239
IBD patients; variant TPMT genotypes, subset of 14 patients
  Odds ratio, Nausea and vomiting: 5.079

## Nc1nc2nc[nH]c2c(=S)[nH]1 [thioguanine, 6-thioguanine]
patients
  use in patients with 6-MP/AZA-related toxicity: used successfully
